Experimental findings from patent US20120214847A1, “2-[1-PHENYL-5-HYDROXY-4a-SUBSTITUTED-HEXAHYDROCYCLOPENTA[F]INDAZOL-5-YL]ETHYL PHENYL DERIVATIVES AS GLUCOCORTICOID RECEPTOR LIGANDS” (Merck Sharp & Dohme Corp., priority 2009, published 2012) are described below.

This experiment addresses T1, glucocorticoid receptor (Homo sapiens, UniProt P04150).
T1 construct: endogenous in cells; host or cells: HeLa (ATCC) cell lysate supernatant
T1 sequence (P04150 1-777): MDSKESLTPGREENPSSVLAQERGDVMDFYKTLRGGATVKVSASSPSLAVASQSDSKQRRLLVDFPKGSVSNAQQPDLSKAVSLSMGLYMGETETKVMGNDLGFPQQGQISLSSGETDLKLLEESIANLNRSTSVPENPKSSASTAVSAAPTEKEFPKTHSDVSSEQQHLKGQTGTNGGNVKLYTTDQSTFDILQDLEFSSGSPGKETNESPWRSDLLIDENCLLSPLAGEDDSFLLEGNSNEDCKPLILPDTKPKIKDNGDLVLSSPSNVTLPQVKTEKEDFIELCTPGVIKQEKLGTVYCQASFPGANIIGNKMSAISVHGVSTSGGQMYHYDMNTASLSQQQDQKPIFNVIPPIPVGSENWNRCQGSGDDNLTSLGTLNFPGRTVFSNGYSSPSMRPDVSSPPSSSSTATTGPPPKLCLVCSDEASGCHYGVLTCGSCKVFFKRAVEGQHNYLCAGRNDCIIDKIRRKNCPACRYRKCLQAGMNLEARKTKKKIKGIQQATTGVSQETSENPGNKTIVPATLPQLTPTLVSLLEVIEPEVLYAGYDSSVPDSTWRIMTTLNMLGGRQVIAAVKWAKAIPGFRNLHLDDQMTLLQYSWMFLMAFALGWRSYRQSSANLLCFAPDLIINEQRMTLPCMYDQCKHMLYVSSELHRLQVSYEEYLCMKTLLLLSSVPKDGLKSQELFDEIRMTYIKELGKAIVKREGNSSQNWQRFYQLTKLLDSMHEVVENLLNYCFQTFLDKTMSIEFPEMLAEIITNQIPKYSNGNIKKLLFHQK
The experiment in a line: Ligand binding assay (GRBind), 3H-dexamethasone displacement in HeLa cell lysate. The note with it: 3H-DEX tracer. The method, boiled down: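 Cytosolic supernatant from HeLa cells in TEGM buffer (pH 7.2, with molybdate) was incubated overnight at 4 °C with 3H-dexamethasone (6 nM trace solution) and serially diluted compound, with 2% ethanol. Bound receptor was captured on hydroxylapatite, filtered and counted by scintillation. IC50s were calculated using dexamethasone as reference.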

The compound `CC[C@]12Cc3cnn(-c4ccc(F)cc4)c3C=C1CC[C@@]2(O)CC(O)c1cncc(F)c1` (stereo partly drawn) [Example 73, (4aS,5R)-4a-Ethyl-1-(4-fluorophenyl)-5-[2-(5-fluoropyridin-3-yl)-2-hydroxyethyl]-1,4,4a,5,6,7-hexahydrocyclopenta[f]indazol-5-ol] registered an inhibitory constant (Ki) of 5.67 nM.
In turn, `NC(=O)CNC(=O)c1cccnc1CC[C@]1(O)CCC2=Cc3c(cnn3-c3ccc(F)cc3)C[C@@]21C1CC1` [Example 43, N-(2-Amino-2-oxoethyl)-2-{2-[(4aR,5R)-4a-cyclopropyl-1-(4-fluorophenyl)-5-hydroxy-1,4,4a,5,6,7-hexahydrocyclopenta[f]indazol-5-yl]ethyl}pyridine-3-carboxamide] had an inhibition constant (Ki) of 5.47 nM.
The result for `N#Cc1c(F)cccc1CC[C@]1(O)CCC2=Cc3c(cnn3-c3ccccc3)C[C@@]21C1CC1` [Example 28, 2-{2-[(4aR,5R)-4a-Cyclopropyl-5-hydroxy-1-phenyl-1,4,4a,5,6,7-hexahydrocyclopenta[f]indazol-5-yl]ethyl}-6-fluorobenzonitrile] reads 1.24 nM; that for `CC[C@]12Cc3cnn(-c4ccc(F)cc4)c3C=C1CC[C@@]2(O)CCc1nccc(C2CC2)c1C(=O)OC` [Example 41, Methyl 4-cyclopropyl-2-{2-[(4aS,5R)-4a-ethyl-1-(4-fluorophenyl)-5-hydroxy-1,4,4a,5,6,7-hexahydrocyclopenta[f]indazol-5-yl]ethyl}pyridine-3-carboxylate], 2.63 nM.
With `CC[C@]12Cc3cnn(-c4ccccc4)c3C=C1CC[C@@]2(O)CCc1ccccc1C(N)=O` [Example 20, 2-{2-[(4aS,5R)-4a-Ethyl-5-hydroxy-1-phenyl-1,4,4a,5,6,7-hexahydrocyclopenta[f]indazol-5-yl]ethyl}benzamide], the Ki turned out to be 2.49 nM.
With `CC[C@]12Cc3cnn(-c4ccc(F)cc4)c3C=C1CC[C@@]2(O)CC(O)c1ncccc1F` (stereo partly drawn) [Example 76, (4aS,5R)-4a-Ethyl-1-(4-fluorophenyl)-5-[2-(3-fluoropyridin-2-yl)-2-hydroxyethyl]-1,4,4a,5,6,7-hexahydrocyclopenta[f]indazol-5-ol], the affinity, expressed as Ki, was 20.8 nM.
Under `N#Cc1ccccc1CC[C@]1(O)CCC2=Cc3c(cnn3-c3cccnc3)C[C@@]21C1CC1` [Example 30, 2-{2-[(4aR,5R)-4a-Cyclopropyl-5-hydroxy-1-(pyridin-3-yl)-1,4,4a,5,6,7-hexahydrocyclopenta[f]indazol-5-yl]ethyl}benzonitrile] stands 1.36 nM.
On to `CC[C@]12Cc3cnn(-c4ccc(F)cc4)c3C=C1CC[C@@]2(O)CCc1ccccc1S(=O)(=O)CC` [Example 51, (4aS,5R)-4a-Ethyl-5-{2-[2-(ethylsulfonyl)phenyl]ethyl}-1-(4-fluorophenyl)-1,4,4a,5,6,7-hexahydrocyclopenta[f]indazol-5-ol], for which the inhibition constant Ki amounted to 2.45 nM.
`CC[C@]12Cc3cnn(-c4ccc(F)cc4)c3C=C1CC[C@@]2(O)CCc1ncc(F)cc1C(N)=O` [Example 53, 2-{2-[(4aS,5R)-4a-Ethyl-1-(4-fluorophenyl)-5-hydroxy-1,4,4a,5,6,7-hexahydrocyclopenta[f]indazol-5-yl]ethyl}-5-fluoropyridine-3-carboxamide] returned an inhibitory constant (Ki) of 5.97 nM.
`NC(=O)c1cc(F)ccc1CC[C@]1(O)CCC2=Cc3c(cnn3-c3ccc(F)cc3)C[C@@]21C1CC1` [Example 39, 2-{2-[(4aR,5R)-4a-Cyclopropyl-1-(4-fluorophenyl)-5-hydroxy-1,4,4a,5,6,7-hexahydrocyclopenta[f]indazol-5-yl]ethyl}-5-fluorobenzamide] yielded a Ki of 1.98 nM.
`CC[C@]12Cc3cnn(-c4ccc(F)cc4)c3C=C1CC[C@@]2(O)CC(O)c1ncccc1Cl` (stereo partly drawn) [Example 70, (4aS,5R)-5-[2-(3-Chloropyridin-2-yl)-2-hydroxyethyl]-4a-ethyl-1-(4-fluorophenyl)-1,4,4a,5,6,7-hexahydrocyclopenta[f]indazol-5-ol] registered a Ki of 7.06 nM. This Ki lies about 3.6-fold higher than the previous one.
For `CC[C@]12Cc3cnn(-c4cccc(F)c4)c3C=C1CC[C@@]2(O)CCc1cccc(F)c1C(N)=O` [Example 12, 2-{2-[(4aS,5R)-4a-Ethyl-1-(3-fluorophenyl)-5-hydroxy-1,4,4a,5,6,7-hexahydrocyclopenta[f]indazol-5-yl]ethyl}-6-fluorobenzamide], the inhibitory constant (Ki) was 1.85 nM.
For `NC(=O)Cc1c(F)cccc1CC[C@]1(O)CCC2=Cc3c(cnn3-c3ccc(F)cc3)C[C@@]21C1CC1` [Example 61, 2-(2-{2-[(4aR,5R)-4a-Cyclopropyl-1-(4-fluorophenyl)-5-hydroxy-1,4,4a,5,6,7-hexahydrocyclopenta[f]indazol-5-yl]ethyl}-6-fluorophenyl)acetamide], affinity was put at a Ki of 2.08 nM. This Ki and that of the compound before are within 1.5-fold of each other.
The result for `CC[C@]12Cc3cnn(-c4cccnc4)c3C=C1CC[C@@]2(O)CCc1ccccc1C#N` [Example 5, 2-{2-[(4aS,5R)-4a-Ethyl-5-hydroxy-1-(pyridin-3-yl)-1,4,4a,5,6,7-hexahydrocyclopenta[f]indazol-5-yl]ethyl}benzonitrile] reads 2.01 nM; that for `NC(=O)Cc1ccccc1CC[C@]1(O)CCC2=Cc3c(cnn3-c3ccc(F)cc3)C[C@@]21C1CC1` [Example 56, 2-(2-{2-[(4aR,5S)-4a-Cyclopropyl-1-(4-fluorophenyl)-5-hydroxy-1,4,4a,5,6,7-hexahydrocyclopenta[f]indazol-5-yl]ethyl}phenyl)acetamide], 1.61 nM; that for `CC[C@]12Cc3cnn(-c4ccc(F)cc4)c3C=C1CC[C@@]2(O)CCc1ccccc1S(C)(=O)=O` [Example 42, (4aS,5R)-4a-Ethyl-1-(4-fluorophenyl)-5-{2-[2-(methylsulfonyl)phenyl]ethyl}-1,4,4a,5,6,7-hexahydrocyclopenta[f]indazol-5-ol], 1.97 nM.
`CC[C@]12Cc3cnn(-c4ccc(F)cc4)c3C=C1CC[C@@]2(O)CCc1ccc(F)cc1C(N)=O` [Example 8, 2-{2-[(4aS,5R)-4a-Ethyl-1-(4-fluorophenyl)-5-hydroxy-1,4,4a,5,6,7-hexahydrocyclopenta[f]indazol-5-yl]ethyl}-5-fluorobenzamide] returned a Ki of 1.27 nM.
In turn, `NC(=O)CNC(=O)c1ccccc1CC[C@]1(O)CCC2=Cc3c(cnn3-c3ccc(F)cc3)C[C@@]21C1CC1` [Example 47, N-(2-Amino-2-oxoethyl)-2-{2-[(4aR,5R)-4a-cyclopropyl-1-(4-fluorophenyl)-5-hydroxy-1,4,4a,5,6,7-hexahydrocyclopenta[f]indazol-5-yl]ethyl}benzamide] returned an inhibition constant Ki of 1.43 nM.
In turn, `CC[C@]12Cc3cnn(-c4ccc(F)cc4)c3C=C1CC[C@@]2(O)CCc1ccccc1C(O)C(N)=O` (stereo partly drawn) [Example 25, 2-(2-{2-[(4aS,5R)-4a-Ethyl-1-(4-fluorophenyl)-5-hydroxy-1,4,4a,5,6,7-hexahydrocyclopenta[f]indazol-5-yl]ethyl}phenyl)-2-hydroxyacetamide] registered a Ki of 3.23 nM.
`NC(=O)[C@H](F)c1c(F)cccc1CC[C@]1(O)CCC2=Cc3c(cnn3-c3ccc(F)cc3)C[C@@]21C1CC1` [Example 57, (2R)-2-(2-{2-[(4aR,5R)-4a-Cyclopropyl-1-(4-fluorophenyl)-5-hydroxy-1,4,4a,5,6,7-hexahydrocyclopenta[f]indazol-5-yl]ethyl}-6-fluorophenyl)-2-fluoroethanamide] yielded a Ki of 1.5 nM. This Ki lies about 2.2-fold lower than the previous one.
`CC[C@]12Cc3cnn(-c4ccc(F)cc4)c3C=C1CC[C@@]2(O)CCc1cc(C(F)(F)F)ccn1` [Example 34, (4aS,5R)-4a-Ethyl-1-(4-fluorophenyl)-5-{2-[4-(trifluoromethyl)pyridin-2-yl]ethyl}-1,4,4a,5,6,7-hexahydrocyclopenta[f]indazol-5-ol] gave a Ki of 2.23 nM. This Ki and that of the compound before are within 1.5-fold of each other.
In turn, `NC(=O)c1c(C(F)(F)F)ccnc1CC[C@]1(O)CCC2=Cc3c(cnn3-c3ccc(F)cc3)C[C@@]21C1CC1` [Example 55, 2-{2-[(4aR,5R)-4a-Cyclopropyl-1-(4-fluorophenyl)-5-hydroxy-1,4,4a,5,6,7-hexahydrocyclopenta[f]indaozol-5-yl]ethyl}-4-(trifluoromethyl)pyridine-3-carboxamide] showed a Ki of 2.24 nM. This Ki and that of the compound before are within 1.5-fold of each other.
As for `CC[C@]12Cc3cnn(-c4ccc(F)cc4)c3C=C1CC[C@@]2(O)CCc1ncccc1C(N)=O` [Example 52, 2-{2-[(4aS,5R)-4a-Ethyl-1-(4-fluorophenyl)-5-hydroxy-1,4,4a,5,6,7-hexahydrocyclopenta[f]indazol-5-yl]ethyl}pyridine-3-carboxamide], the Ki stood at 9.83 nM.
With `CC[C@]12Cc3cnn(-c4ccc(F)cc4)c3C=C1CC[C@@]2(O)CCc1nccc(OC)c1CC(N)=O` [Example 64, 2-(2-{2-[(4aS,5R)-4a-Ethyl-1-(4-fluorophenyl)-5-hydroxy-1,4,4a,5,6,7-hexahydrocyclopenta[f]indazol-5-yl]ethyl}-4-methoxypyridin-3-yl)acetamide], the affinity corresponds to a Ki of 11.5 nM.

One may read the Ki as the dissociation constant of the complex between target and ligand, obtained from inhibition or displacement. High values mean a looser hold on the target, low ones a stronger hold on the target.
